Where two headings read alike, the source gives them in different places.
Test system: LP-BM5
Format: in vivo, C57BL/6 mice
Conditions: for Lymphad. (% inh.) / Splenom. (% inh.): about 4 months from infection
Source text: LP-BM5 virus was provided by Robert Yetter (Veternas Administration Hospital, Baltimore, MD) and was maintained in a persistently infected SC- 1 cell line as described (Hosier D.E., Yetter R.A., Morse H.C. III, "Functional T lymphocytes are required for a murine retrovirus induced immunodeficiency disease (MAIDS)", J. Exp. Med. 1987; 165:1737-42). C57BL/6 female mice were purchased from Nossan, Milan, Italy and were used at 5 weeks of age. Animals were infected by means of two successive intraperitoneal injections at 24-hr intervals. In the experiments reported three different virus preparations were used.
Mice were housed at 22±1°C with a 12-hr light-dark cycle, 60±5% humidity, and 12 air changes/hr.
First, the efficacy of 2-fluoro-ara-AMP (F-araAMP, Fludara) in inhibiting murine AIDS (MAIDS), a disease characterized by a lymphoproliferative disorder (lymphadenopathy and splenomegaly), associated with severe immunodeficiency and hypergammaglobulinemia, was evaluated. The disease develops in some strains of mice (C57BL/6) that are infected with a murine leukemia virus mixture termed LP-BM5. In the first preliminary experiments (after about 4 months from infection) LP-BMS infected animals were treated with three different concentrations of F-ara-AMP: 0.065 mg/mouse, 0.325 mg/mouse, 0.650 mg/mouse. The animals of each group were treated intraperitoneally for 3 days a week and for 3 weeks. At the end of the treatment animals were killed and splenomegaly, lymphadenopathy and hypergammaglobulinemia were evaluated.
Infected mice after 7 weeks from infection were treated intraperitoneally with Fludara as follows: • 1. 0.65 mg/mouse once a day for 4 days a week (total dose 7.8 mg/mouse); • 2. 0.65 mg/mouse twice a day for 5 days a week (total dose 19.5 mg/mouse); • 3. […]

[1] = 0.065 mg/mouse i.p. 3 days a week for 3 weeks
[2] = 0.325 mg/mouse i.p. 3 days a week for 3 weeks
[3] = 0.650 mg/mouse i.p. 3 days a week for 3 weeks
[4] = group a: 3.0 mg i.p. once a day for 5 consecutive days, 4 weeks, after 7 weeks of infection
[5] = group b: 3.0 mg i.p. twice a day for 5 consecutive days, 4 weeks, after 7 weeks of infection
[6] = group c: 10 mg in drinking water for 5 consecutive days, 4 weeks, after 7 weeks of infection
[7] = group d: 15 mg in drinking water for 5 consecutive days, 4 weeks, after 7 weeks of infection
[8] = regime 1: 0.65 mg once a day 4 days/week for 3 weeks i.p., after 7 weeks of infection
[9] = regime 2: 0.65 mg twice a day 5 days/week for 4 weeks i.p., after 7 weeks of infection
[10] = regime 3: 3.00 mg once a day 5 days/week for 3 weeks i.p., after 7 weeks of infection
[11] = treatment c: after 6 weeks of infection 3 mg F-ara-AMP i.p. twice a day, 5 consecutive days, 4 weeks, at 10 weeks after infection
[12] = treatment g: after 6 weeks of infection 3 mg F-ara-AMP i.p. twice a day 4 weeks, then interrupted, at 14 weeks after infection

**Q.** Which results are given for Nc1nc(F)nc2c1ncn2[C@@H]1O[C@H](COP(=O)(O)O)[C@@H](O)[C@@H]1O [F-ara-AMP, Fludarabine phosphate]?
**A.** Lymphad. (% inh.) [1]: 20±15%; Splenom. (% inh.) [1]: 0%; Lymphad. (% inh.) [2]: 26±9%; Splenom. (% inh.) [2]: 0%; Lymphad. (% inh.) [3]: 49±6%; Splenom. (% inh.) [3]: 0%; Lymph node w. [4]: 0.54 ± 0.32 g; Spleen w. [4]: 0.50 ± 0.25 g; Lymph node w. [5]: 0.05 ± 0.02 g; Spleen w. [5]: 0.22 ± 0.06 g; Lymph node w. [6]: 0.16 ± 0.16 g; Spleen w. [6]: 0.31 ± 0.09 g; Lymph node w. [7]: 0.28 ± 0.23 g; Spleen w. [7]: 0.28 ± 0.13 g; Lymph node w. [8]: 2.63 ± 0.57 g; Spleen weight [8]: 1.01 ± 0.24 g; Lymph node w. [9]: 2.11 ± 0.54 g; Spleen weight [9]: 0.87 ± 0.20 g; Lymph node w. [10]: 1.75 ± 0.53 g; Spleen weight [10]: 0.84 ± 0.17 g; Lymph node w. [11]: 0.042 ± 0.018 g; Spleen w. [11]: 0.130 ± 0.004 g; Lymph node w. [12]: 0.290 ± 0.05 g; Spleen w. [12]: 0.41 ± 0.200 g
